In the test the target is T1, Hsp90α (Homo sapiens, UniProt P07900).
T1 construct: gene HSP90AA1; recombinant human Hsp90α (SPP-776)
Description: SPR (Biacore […], immobilized Hsp90α). Type of test: binding.

The structures appear in SMILES notation.

The Kd is the concentration at which binding is half-saturated. A lower Kd goes with higher affinity. In turn, `NS(=O)(=O)c1ccc(CCn2c(=S)[nH]c3ccccc3c2=O)cc1` [compound 1, 4-(2-(4-Oxo-2-thioxo-1,4-dihydroquinazolin-3(2H)-yl)ethyl)benzene sulfonamide] came in with a Kd of 51 ± 2.9 nM.

(Values after paper PMC7248782, “Synergistic Anti Leukemia Effect of a Novel Hsp90 and a Pan Cyclin Dependent Kinase Inhibitors” (Molecules, 2020).)
